We go through two substances from patent US8022178B2, “Modified self-assembling peptides” (Massachusetts Institute of Technology, priority 2006, dated 2011).

Assay [1] concerns HUVEC (human umbilical vein endothelial cells). The experiment in a line: HUVEC culture on bFGF loaded peptide matrix. It counts as cell-based. The settings on record: Day 3; bFGF loaded matrix compared to negative and positive control; FIG. 21; listed as RAD-2P. Here is the method:
The effect of protein retention and delivery using the self-assembling peptide were studied (Table 11). bFGF was used as a model protein. The retention of bFGF in different peptide matrix in different charge condition was measured by ELISA after washing by PBS. After washing out unbound bFGF, the effect of protein retention to self-assembling peptide matrix were evaluated the using cell culturing of HUVEC (human umbilical vein endothelial cells).
The peptide solutions provided in Table 12 were loaded in the culture inserts (10 mm diameter, Millicell-CM, Millipore) and gels were formed using PBS. After gelation, bFGF solution in PBS was added inside and outside and plated for overnight. bFGF was loaded at 175 ng/insert. After loading bFGF, the PBS inside and outside the inserts were exchanged three times (2 hours, 9 hours and 12 hours) to remove unbound bFGF (Washing). […]
Cell culturing using cell culture medium (EGM-2-MV) was used without attached growth factor on peptide matrix as negative control. […] The bFGF concentration in washing buffer (PBS) and cell culture medium (EGM-2-MV) was measured using ELISA. […] Growth factor retention rate was calculated by accumulating the amount of measured bFGF. […]

In assay [2] the test system is adipose derived stem cells (ADSC). Description: Growth factors secreted by ADSC into the culture medium (ELISA). The assay is classed as cell-based, human. The settings on record: from 1 day up to 7 days of culture, control tissue culture plate, FIG. 35. As to the method: (§1) The peptide solutions shown in Table 25 were loaded in the culture inserts (10 mm diameter, Millicell-CM, Millipore) and gels were formed using cell culture medium (DMEM-F12+10% FBS, Gibco). ADSC were plated at 4×10^4 cells on the inserts and cultured up to 7 Days.
The growth factors secreted into the culture medium were also evaluated using ELISA method (FIGS. 35A-35B). The growth factors secreted from stem cell are considered to be main source of the cell therapy by reducing apotosis and increasing angiogenesis. Especially HGF and VEGF are considered to key components for reducing apotosis and increasing angiogenesis. The medium of ADSC cultured on tissue culture plate was used as control (shown as TCP). […] For VEGF, all peptide matrix had increase of VEGF secretion in 1 day culture medium.
A general note: An ELISA detects its analyte on a solid surface through an enzyme-linked reagent.

The test system is the same in assay [3]. The experiment in a line: ADSC culture in functionalized peptide matrixes: cell migration. The assay is classed as cell-based, human. Here is the method:
3-dimensional adipose derived stem cells (ADSC) were cultured in the functionalized peptide matrixes (Table 24) and cell maintenance ability of functionalized self-assembling peptide matrixes was evaluated. ADSCs were suspended in 10% sucrose solution and mixed with peptide solution selected from Table 25. The cell suspended peptide solutions were transferred to the culture inserts (10 mm diameter, Millicell-CM, Millipore) and gels were immediately formed using cell culture medium. Cell numbers seeded in the well were 4×10^4 cells/well.
as §1
Although the cells were seeded on the surface of the matrix, the cells were migrated well into the matrix.

Assay [4] relates to Mouse preosteoblast cell line (MC3T3-E1). Description: Alkaline phosphatase (ALP) activity of MC3T3-E1 on hydrogels. It counts as cell-based. The settings on record: 1% FHR hydrogel; FIGS. 14-16A/B compared to FIGS. 3-4. Here is the method:
Mouse preosteoblast cell line (MC3T3-E1) was used to compare the proliferation and differentiation effects of the motifs with RAD16-1 and Collagen-I hydrogels as controls. The proliferation was measured by DNA contents and the differentiation effects were evaluated using Alkaline phosphatase (ALP) activity and secreted Osteocalcin. Alkaline phosphatase is known to be differentiation marker of osteoblast in earlier stage. Secreted Osteocalcin is known to be differentiation marker of osteoblast in later stage and its activity is correlated with the bone mineralization.
1% RAD16-I solution [self-assembling peptide solution] was obtained as RAD16-I (Puramatrix™, 3DM Inc./BD Bioscience). The functionalized peptides of Table 2 were dissolved in water at final concentration of 1% (v/w). The functionalized peptide solutions were then mixed with 1% RAD16-I solution at a ratio of 1:1 (Table 4). Each peptide solution was loaded in the Culture plate inserts (10 mm diameter, Millicell-CM, Millipore). […]
Cell proliferation was evaluated using DNA contents in the hydrogel using PicoGreen dsDNA Kits (Molecular Probes). ALP activity was quantitatively measured from cell lysis using Alkaline Phosphatase Fluorescence Assay Kit (Sigma). Osteocalcin was measured from cell culture medium using Mouse Osteocalcin EIA Kit (Biomedical Technologies Inc.).

Entries after “also recorded” stand apart in the source; their conditions may differ.

Consider Ac(RADA)4-CONH2, for which the “cell attachment and cell spread” value in assay [1] is “superior; also recorded: dominant effect”. The “HGF secreted into the culture medium” value in assay [2] is “significant increase”. Moreover, the “migration depth of cells” value in assay [3] (7 days of culturing, FIG. 34) is on record as “migrated less deeper than PRGmx”. In addition, the “portion of the cell migrated into the hydrogels” value in assay [3] (7 days, compared to PRGmx) is given as “larger”.
With “Ac(RADA)4GGFHRRIKA-CONH2 (Ac-RADARADARADARADAGGFHRRIKA-NH2) [FHR = 1% solution; FHR-2P = 2% solution]”, the “promotion of pre-osteoblast differentiation” value in assay [4] is on record as “some function to promote differentiation”.
